According to article PMC12586182 (Frontiers in Oncology, 2025):

Assays:
Test in all cases: Kinase panel profiling at 1 µmol/L (mobility shift assay, Carna)
[1] = biological target: T1, MST4 (Homo sapiens, UniProt Q9P289); type: biochemical; conditions: 1 µmol/L of BTK inhibitor
T1 construct: purchased Carna Biosciences

[2] = biological target: CSK (Homo sapiens, UniProt P41240); conditions: for Percentage inhibition of kinase enzyme activity: CSK, 1 µmol/L of BTK inhibitor
[3] = biological target: T2, CK1γ2 (Homo sapiens, UniProt P78368); type: biochemical; conditions: 1 µmol/L of BTK inhibitor
T2 construct: purchased Carna Biosciences
T2 sequence (P78368 whole entry): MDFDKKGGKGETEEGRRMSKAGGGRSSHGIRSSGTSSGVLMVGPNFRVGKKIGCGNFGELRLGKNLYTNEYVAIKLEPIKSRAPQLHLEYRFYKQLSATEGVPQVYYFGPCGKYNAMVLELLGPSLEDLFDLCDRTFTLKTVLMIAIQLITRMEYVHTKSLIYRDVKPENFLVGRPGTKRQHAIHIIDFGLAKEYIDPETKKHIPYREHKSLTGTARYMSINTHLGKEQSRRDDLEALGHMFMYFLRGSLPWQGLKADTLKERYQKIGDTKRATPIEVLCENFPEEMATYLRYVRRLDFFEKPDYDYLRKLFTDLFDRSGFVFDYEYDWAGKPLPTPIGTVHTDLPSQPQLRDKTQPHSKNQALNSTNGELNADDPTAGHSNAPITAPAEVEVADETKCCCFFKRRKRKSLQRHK

[4] = biological target: T3, TNK1 (Homo sapiens, UniProt Q13470); type: biochemical; conditions: 1 µmol/L of BTK inhibitor
T3 construct: purchased Carna Biosciences
T3 sequence (Q13470 1-666): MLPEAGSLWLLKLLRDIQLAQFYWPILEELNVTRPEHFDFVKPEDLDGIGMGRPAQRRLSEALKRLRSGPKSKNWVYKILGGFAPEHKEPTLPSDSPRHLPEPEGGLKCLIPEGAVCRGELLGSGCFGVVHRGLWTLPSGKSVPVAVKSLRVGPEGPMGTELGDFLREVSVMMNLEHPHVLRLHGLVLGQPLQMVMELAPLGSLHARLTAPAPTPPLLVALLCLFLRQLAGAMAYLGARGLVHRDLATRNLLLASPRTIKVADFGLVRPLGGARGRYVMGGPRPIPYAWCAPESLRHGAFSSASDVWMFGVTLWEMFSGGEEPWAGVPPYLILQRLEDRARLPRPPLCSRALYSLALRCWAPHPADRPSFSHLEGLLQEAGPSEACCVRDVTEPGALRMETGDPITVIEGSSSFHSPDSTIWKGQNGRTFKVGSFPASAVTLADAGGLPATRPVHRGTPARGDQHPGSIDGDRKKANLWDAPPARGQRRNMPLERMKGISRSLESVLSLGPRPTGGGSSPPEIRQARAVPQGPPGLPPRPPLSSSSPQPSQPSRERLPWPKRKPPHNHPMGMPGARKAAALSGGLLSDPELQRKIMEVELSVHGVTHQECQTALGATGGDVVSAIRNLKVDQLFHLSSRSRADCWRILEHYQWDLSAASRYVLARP

[5] = biological target: T4, CaMK1δ (Homo sapiens, UniProt Q8IU85); type: biochemical; conditions: 1 µmol/L of BTK inhibitor
T4 construct: purchased Carna Biosciences
T4 sequence (Q8IU85 whole entry): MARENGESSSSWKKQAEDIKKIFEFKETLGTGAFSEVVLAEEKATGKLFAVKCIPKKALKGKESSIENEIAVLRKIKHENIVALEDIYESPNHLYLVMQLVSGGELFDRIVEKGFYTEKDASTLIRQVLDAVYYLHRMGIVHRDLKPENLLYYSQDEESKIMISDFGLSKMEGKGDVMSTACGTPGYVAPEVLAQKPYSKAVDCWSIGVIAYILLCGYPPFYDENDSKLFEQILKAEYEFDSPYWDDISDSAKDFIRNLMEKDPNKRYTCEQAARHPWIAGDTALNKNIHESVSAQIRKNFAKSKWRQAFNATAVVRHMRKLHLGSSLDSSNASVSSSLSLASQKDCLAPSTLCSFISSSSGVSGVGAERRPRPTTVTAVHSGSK

[6] = biological target: T5, TRKA (Homo sapiens, UniProt P04629); type: biochemical; conditions: 1 µmol/L of BTK inhibitor
T5 construct: purchased Carna Biosciences
T5 sequence (P04629 33-796): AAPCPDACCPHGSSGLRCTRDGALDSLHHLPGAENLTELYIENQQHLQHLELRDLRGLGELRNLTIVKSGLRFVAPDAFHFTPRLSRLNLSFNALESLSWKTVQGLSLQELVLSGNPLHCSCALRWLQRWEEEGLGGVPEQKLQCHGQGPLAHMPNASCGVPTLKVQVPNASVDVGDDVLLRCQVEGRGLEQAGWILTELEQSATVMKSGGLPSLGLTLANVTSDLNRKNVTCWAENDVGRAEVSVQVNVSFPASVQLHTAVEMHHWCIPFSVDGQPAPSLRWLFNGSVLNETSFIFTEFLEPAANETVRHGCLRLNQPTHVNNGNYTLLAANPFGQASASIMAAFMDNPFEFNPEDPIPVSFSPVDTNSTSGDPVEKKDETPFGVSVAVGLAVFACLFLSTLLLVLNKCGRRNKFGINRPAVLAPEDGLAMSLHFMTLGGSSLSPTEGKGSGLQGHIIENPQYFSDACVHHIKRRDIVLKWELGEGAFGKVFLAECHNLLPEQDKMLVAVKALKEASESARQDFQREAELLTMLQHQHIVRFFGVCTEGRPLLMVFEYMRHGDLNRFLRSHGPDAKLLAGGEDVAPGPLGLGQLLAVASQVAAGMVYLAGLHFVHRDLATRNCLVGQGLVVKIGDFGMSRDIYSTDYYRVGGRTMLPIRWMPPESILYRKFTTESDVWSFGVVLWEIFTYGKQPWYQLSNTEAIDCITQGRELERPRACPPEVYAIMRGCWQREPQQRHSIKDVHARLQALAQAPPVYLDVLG

[7] = biological target: T6, skMLCK (Homo sapiens, UniProt Q9H1R3); type: biochemical; conditions: 1 µmol/L of BTK inhibitor
T6 construct: purchased Carna Biosciences

[8] = biological target: T7, NEK6 (Homo sapiens, UniProt Q9HC98); type: biochemical; conditions: 1 µmol/L of BTK inhibitor
T7 construct: purchased Carna Biosciences
T7 sequence (Q9HC98 whole entry): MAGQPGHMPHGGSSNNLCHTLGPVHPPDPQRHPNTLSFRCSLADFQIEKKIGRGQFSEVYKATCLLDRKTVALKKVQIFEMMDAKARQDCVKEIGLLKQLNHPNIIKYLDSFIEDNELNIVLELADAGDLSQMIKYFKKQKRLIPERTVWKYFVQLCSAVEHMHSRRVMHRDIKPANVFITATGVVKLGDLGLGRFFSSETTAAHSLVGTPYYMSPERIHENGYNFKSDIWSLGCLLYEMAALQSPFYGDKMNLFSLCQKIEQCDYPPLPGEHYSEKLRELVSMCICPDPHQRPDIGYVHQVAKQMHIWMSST

[9] = biological target: T8, DYRK1B (Homo sapiens, UniProt Q9Y463); type: biochemical; conditions: 1 µmol/L of BTK inhibitor
T8 construct: purchased Carna Biosciences

[10] = biological target: T9, PKN1 (Homo sapiens, UniProt Q16512); type: biochemical; conditions: 1 µmol/L of BTK inhibitor
T9 construct: purchased Carna Biosciences
T9 sequence (Q16512 whole entry): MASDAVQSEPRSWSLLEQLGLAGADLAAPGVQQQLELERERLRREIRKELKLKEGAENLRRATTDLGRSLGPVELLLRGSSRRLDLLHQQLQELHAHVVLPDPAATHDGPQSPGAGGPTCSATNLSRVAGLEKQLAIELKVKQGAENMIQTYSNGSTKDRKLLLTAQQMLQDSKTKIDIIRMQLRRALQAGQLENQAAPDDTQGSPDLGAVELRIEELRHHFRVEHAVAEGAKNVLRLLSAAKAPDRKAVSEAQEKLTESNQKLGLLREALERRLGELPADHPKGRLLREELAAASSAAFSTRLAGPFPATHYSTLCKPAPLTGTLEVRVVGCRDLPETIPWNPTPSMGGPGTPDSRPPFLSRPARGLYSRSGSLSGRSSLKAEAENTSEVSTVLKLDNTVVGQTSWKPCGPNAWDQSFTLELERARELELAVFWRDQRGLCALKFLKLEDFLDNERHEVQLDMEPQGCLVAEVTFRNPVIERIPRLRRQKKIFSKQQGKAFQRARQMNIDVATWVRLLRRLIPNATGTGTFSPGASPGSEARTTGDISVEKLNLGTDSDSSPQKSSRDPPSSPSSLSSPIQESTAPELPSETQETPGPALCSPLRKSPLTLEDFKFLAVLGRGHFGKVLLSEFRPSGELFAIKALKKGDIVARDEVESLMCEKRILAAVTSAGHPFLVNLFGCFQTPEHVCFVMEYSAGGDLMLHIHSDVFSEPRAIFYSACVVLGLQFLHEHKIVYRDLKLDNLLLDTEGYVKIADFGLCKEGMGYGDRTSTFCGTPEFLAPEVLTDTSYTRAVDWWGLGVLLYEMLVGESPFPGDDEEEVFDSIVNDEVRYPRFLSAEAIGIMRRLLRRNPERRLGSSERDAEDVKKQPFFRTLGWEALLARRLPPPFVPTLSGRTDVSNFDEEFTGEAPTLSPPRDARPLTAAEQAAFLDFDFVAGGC

[11] = biological target: T10, SLK (Homo sapiens, UniProt Q9H2G2); type: biochemical; conditions: 1 µmol/L of BTK inhibitor
T10 construct: purchased Carna Biosciences
T10 sequence (Q9H2G2 whole entry): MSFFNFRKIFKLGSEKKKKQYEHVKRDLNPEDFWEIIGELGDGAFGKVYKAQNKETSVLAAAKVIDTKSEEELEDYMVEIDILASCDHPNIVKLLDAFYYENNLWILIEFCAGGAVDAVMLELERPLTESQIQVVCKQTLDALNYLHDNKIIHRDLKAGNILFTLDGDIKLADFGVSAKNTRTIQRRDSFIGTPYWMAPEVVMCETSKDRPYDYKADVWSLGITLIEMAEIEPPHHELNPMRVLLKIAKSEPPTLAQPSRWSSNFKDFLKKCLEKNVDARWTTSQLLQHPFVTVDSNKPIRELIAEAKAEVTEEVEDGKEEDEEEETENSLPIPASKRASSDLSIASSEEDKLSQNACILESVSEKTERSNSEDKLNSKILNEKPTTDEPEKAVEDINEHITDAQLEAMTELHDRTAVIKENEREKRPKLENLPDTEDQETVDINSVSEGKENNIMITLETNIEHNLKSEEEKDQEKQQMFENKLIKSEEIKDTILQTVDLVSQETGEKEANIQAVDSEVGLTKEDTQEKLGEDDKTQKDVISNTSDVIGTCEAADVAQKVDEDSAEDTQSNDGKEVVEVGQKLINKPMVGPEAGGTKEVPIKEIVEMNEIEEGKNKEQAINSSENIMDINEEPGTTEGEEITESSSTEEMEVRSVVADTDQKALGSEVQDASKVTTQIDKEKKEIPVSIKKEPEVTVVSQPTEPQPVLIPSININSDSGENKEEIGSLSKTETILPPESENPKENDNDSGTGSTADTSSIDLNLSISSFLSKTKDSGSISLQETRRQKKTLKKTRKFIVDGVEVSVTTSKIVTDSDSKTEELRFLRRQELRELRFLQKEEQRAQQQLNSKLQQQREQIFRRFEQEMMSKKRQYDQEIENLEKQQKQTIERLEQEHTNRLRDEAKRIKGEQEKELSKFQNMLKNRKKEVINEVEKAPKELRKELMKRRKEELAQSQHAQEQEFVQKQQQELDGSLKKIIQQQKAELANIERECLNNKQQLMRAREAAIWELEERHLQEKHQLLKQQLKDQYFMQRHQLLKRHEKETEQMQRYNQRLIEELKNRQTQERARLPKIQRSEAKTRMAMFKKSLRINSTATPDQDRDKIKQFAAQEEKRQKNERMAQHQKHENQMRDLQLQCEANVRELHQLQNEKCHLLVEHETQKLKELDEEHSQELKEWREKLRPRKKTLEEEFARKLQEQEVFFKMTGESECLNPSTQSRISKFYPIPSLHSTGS

[12] = biological target: T11, MARK2 (Homo sapiens, UniProt Q7KZI7); type: biochemical; conditions: 1 µmol/L of BTK inhibitor
T11 construct: purchased Carna Biosciences

[13] = biological target: T12, CK2α2/β (Homo sapiens, UniProt P19784); type: biochemical; conditions: 1 µmol/L of BTK inhibitor
T12 construct: purchased Carna Biosciences

[14] = biological target: T13, DYRK2 (Homo sapiens, UniProt Q92630); type: biochemical; conditions: 1 µmol/L of BTK inhibitor
T13 construct: purchased Carna Biosciences
T13 sequence (Q92630 1-601): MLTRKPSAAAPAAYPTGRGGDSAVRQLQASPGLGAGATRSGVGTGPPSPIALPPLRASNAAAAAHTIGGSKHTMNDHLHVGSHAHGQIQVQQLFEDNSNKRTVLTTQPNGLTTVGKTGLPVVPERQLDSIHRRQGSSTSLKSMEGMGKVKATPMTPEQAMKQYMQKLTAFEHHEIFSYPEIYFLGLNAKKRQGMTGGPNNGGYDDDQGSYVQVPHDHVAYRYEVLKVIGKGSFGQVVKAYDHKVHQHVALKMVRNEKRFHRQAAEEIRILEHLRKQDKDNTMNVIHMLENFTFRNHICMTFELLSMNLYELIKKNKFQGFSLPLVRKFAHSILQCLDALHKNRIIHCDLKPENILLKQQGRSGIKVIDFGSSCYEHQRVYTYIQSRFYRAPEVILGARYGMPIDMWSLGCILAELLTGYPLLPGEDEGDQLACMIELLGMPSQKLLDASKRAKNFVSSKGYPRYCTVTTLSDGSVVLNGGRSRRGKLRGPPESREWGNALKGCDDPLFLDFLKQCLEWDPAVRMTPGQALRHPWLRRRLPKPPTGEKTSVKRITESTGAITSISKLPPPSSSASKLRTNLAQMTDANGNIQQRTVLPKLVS

[15] = biological target: T14, Haspin (Homo sapiens, UniProt Q8TF76); type: biochemical; conditions: 1 µmol/L of BTK inhibitor
T14 construct: purchased Carna Biosciences
T14 sequence (Q8TF76 1-798): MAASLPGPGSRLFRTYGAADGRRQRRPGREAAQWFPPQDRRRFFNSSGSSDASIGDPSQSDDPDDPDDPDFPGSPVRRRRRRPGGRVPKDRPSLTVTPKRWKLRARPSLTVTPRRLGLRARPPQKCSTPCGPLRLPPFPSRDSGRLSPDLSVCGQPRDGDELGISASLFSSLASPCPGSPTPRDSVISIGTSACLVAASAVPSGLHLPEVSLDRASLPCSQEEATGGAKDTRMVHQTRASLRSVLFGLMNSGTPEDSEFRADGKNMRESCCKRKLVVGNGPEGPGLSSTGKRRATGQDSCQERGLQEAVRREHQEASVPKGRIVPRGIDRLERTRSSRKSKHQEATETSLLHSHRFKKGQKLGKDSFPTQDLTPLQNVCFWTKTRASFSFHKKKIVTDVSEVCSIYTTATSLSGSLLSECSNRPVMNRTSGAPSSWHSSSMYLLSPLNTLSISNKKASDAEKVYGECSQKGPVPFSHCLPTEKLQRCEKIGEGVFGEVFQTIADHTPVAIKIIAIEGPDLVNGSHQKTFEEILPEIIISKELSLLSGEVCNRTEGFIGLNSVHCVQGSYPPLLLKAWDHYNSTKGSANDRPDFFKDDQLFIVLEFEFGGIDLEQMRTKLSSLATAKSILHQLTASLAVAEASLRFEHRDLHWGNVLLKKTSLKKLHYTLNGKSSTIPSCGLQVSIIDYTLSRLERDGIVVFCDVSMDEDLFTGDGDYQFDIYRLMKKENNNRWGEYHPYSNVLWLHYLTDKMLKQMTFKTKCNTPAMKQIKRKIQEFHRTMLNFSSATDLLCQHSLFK

T1 sequence (Q9P289 whole entry): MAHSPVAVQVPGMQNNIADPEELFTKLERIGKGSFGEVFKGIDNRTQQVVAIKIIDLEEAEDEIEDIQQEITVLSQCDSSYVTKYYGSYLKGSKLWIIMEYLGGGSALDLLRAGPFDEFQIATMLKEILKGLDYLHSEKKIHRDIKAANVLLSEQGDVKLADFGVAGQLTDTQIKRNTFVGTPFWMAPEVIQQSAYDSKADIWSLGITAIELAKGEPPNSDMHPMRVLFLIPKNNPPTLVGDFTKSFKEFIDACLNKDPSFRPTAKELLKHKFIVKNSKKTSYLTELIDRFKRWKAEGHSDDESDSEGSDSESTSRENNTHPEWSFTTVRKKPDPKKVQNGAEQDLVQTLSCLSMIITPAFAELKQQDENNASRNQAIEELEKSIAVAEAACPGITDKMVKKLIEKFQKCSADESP
CSK, sequence (P41240 whole entry): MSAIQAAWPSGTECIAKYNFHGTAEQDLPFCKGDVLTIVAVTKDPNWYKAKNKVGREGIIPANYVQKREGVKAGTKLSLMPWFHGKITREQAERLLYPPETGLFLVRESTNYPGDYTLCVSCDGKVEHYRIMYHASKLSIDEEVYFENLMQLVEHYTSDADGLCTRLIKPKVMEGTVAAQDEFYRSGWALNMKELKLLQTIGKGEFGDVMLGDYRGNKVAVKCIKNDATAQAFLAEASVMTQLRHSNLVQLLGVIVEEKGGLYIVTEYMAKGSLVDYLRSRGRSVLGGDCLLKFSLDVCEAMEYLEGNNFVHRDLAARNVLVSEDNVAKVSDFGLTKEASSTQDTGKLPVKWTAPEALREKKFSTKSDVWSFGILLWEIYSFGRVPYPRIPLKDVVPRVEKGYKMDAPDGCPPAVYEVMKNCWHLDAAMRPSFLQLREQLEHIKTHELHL

| Structure (SMILES) | Percentage inhibition of kinase enzyme activity [1] [%] | Percentage inhibition of kinase enzyme activity [2] [%] | Percentage inhibition of kinase enzyme activity [3] [%] | Percentage inhibition of kinase enzyme activity [4] [%] | Percentage inhibition of kinase enzyme activity [5] [%] | Percentage inhibition of kinase enzyme activity [6] [%] | Percentage inhibition of kinase enzyme activity [7] [%] | Percentage inhibition of kinase enzyme activity [8] [%] | Percentage inhibition of kinase enzyme activity [9] [%] | Percentage inhibition of kinase enzyme activity [10] [%] | Percentage inhibition of kinase enzyme activity [11] [%] | Percentage inhibition of kinase enzyme activity [12] [%] | Percentage inhibition of kinase enzyme activity [13] [%] | Percentage inhibition of kinase enzyme activity [14] [%] | Percentage inhibition of kinase enzyme activity [15] [%] | inhibition at 1 µM ([2]; read-out: Inhibition of CSK) [%] |
| --- | --- | --- | --- | --- | --- | --- | --- | --- | --- | --- | --- | --- | --- | --- | --- | --- |
| CC#CC(=O)N1CCC[C@H]1c1nc(-c2ccc(C(=O)Nc3ccccn3)cc2)c2c(N)nccn12 [acalabrutinib] | -6.42 | 6.97 | -7.07 | -1.80 | -5.01 | 12.80 | -17.48 | -5.54 | -19.49 | 11.29 | 1.61 | -9.24 | 9.56 | -16.01 | 5.31 |  |
| C=CC(=O)N1CCC[C@@H](n2nc(-c3ccc(Oc4ccccc4)cc3)c3c(N)ncnc32)C1 [ibrutinib] | 1.46 |  | 1.01 | 6.17 | 4.85 | 59.18 | -16.74 | 0.77 | 1.91 | 8.58 | 12.11 | 2.67 | -7.37 | -1.83 | 2.53 |  |
| O=C(c1ccc(Oc2ccccc2)cc1Cl)c1c[nH]c2ncnc(N[C@@H]3CC[C@@H](CO)OC3)c12 [nemtabrutinib] | 57.51 | 98.66 | -5.17 | 75.62 | 9.32 | 99.52 | 2.60 | -0.80 | -3.59 | 5.57 | 52.74 | -4.16 | -3.55 | -2.66 | -1.40 |  |
| COc1ccc(F)cc1C(=O)NCc1ccc(-c2nn([C@@H](C)C(F)(F)F)c(N)c2C(N)=O)cc1 [pirtobrutinib] | -7.97 | 79.14 | 1.27 | 3.07 | 2.74 | 4.28 | -3.69 | -2.92 | 12.04 | 15.81 | -0.40 | 2.21 | 4.12 | -4.14 | -3.18 | > 75 |
